Literature values in patent US20160264934A1, “METHODS FOR MODULATING AND ASSAYING m6A IN STEM CELL POPULATIONS” (THE GENERAL HOSPITAL CORPORATION, priority 2015, published 2016).

Biological target: ALKBH5 (Homo sapiens, UniProt Q6P6C2)
Conditions: HPLC-based assays

Chain of ALKBH5 (Q6P6C2 whole entry, species assumed): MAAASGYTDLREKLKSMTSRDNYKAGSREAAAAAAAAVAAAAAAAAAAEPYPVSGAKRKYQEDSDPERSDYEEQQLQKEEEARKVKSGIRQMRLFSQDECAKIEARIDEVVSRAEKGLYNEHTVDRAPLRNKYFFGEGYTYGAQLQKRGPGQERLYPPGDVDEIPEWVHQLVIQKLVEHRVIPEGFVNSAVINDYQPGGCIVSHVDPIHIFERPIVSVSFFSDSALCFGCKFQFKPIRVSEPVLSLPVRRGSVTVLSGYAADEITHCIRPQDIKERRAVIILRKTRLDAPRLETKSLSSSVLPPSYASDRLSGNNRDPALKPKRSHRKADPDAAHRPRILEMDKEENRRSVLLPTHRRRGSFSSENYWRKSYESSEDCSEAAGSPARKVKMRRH

inhibition of ALKBH5: no inhibition
Compound: Cc1ccc(Cl)c(Nc2ccccc2C(=O)O)c1Cl [meclofenamic acid]
